# Measurements as given in patent publication US20070077268A1, “Hydrophobic carrier modified implants for beneficial agent delivery” (DePuy Products, Inc., priority 2005, published 2007).
# Experiment: Cyclic loading test of UHMWPE pins, release of beta-carotene
# Format: physicochemical
# Details: pins soaked in 1.0 wt. % beta-carotene in squalane at 90° C. for 24 hours; peak load about 330 Newtons, 1.66 Hz, bovine calf serum, 37° C.
# Protocol: UHMWPE (GUR 1050) is irradiated with gamma radiation (50 KGy or 5 Mrad) and melt annealed to quench free radicals. An AMTI Ortho-POD Wear Test Machine is used for the testing the UHMWPE cylindrical pin samples. The samples are ⅜ inch in diameter and 0.7 inch long, and are soaked in a 1.0 wt. % solution of beta-carotene in squalane at 90° C. for 24 hours. The samples are bright orange red in color, indicating the presence of beta-carotene.
# A Paul loading curve with a peak load of about 330 Newtons is applied to the pins. The cycling frequency is 1.66 Hz. A 90% bovine calf serum, diluted with EDTA and sodium azide dissolved in reverse osmosis water, is used as lubricant. The temperature of the lubricant is 37° C.
smiles,measurement,value
CC1=C(/C=C/C(C)=C/C=C/C(C)=C/C=C/C=C(C)/C=C/C=C(C)/C=C/C2=C(C)CCCC2(C)C)C(C)(C)CCC1 [beta-carotene],release of beneficial agent from UHMWPE pins (colour change bright orange red to light orange),"released, activated by the load"
